{"source": "paper PMC3481155", "about": "“AhR activation underlies the CYP1A autoinduction by A-998679 in rats” (Frontiers in Genetics, 2012)", "key": {"[1]": {"test_system": "Cyp1a1", "test": "Cyp1a1 mRNA induction in primary rat hepatocytes", "type": "cell-based", "conditions": "10 μM, 24 h, data not shown", "description": "Rat hepatocytes were isolated in a perfusion procedure as described previously (Elliget and Kolaja, [1983]; Waring et al., [2001]). The beagle dog hepatocytes were isolated in the same manner, except for adjustment of flow rate and buffer volume to scale to liver size. Cells were plated at a seeding density of 1.0 × 10^6 cells per well on 6-well, collagen-type I coated plates (BD Biosciences, Bedford, MA) in hepatocyte plating medium (Celsis, Baltimore, MD). Cells were allowed to attach for 24 h in a 37°C humidified incubator with a 5% CO2 atmosphere and were dosed for 24 h (rat) or 48 h (dog) with vehicle control [0.1% DMSO (v/v)] or 10 μM A-998679 in fresh treatment media (Celsis hepatocyte incubation media) every 24 h. After the last incubation, cells were lysed in 1 ml of Qiazol (Qiagen) and stored at −80°C until RNA isolation. Cryopreserved human hepatocytes (donor designation Hu4198; Invitrogen Life Technologies, Carlsbad, CA) were thawed and plated according to the manufacturer's protocol and allowed to incubate for 24 h. […]\nRNA samples were diluted with RNase-free molecular biology grade water to a concentration of 20 ng/μl total RNA. […] Results were analyzed by calculating the fold change of CYP1A1 and/or CYP1A2 mRNA levels normalized to 28S rRNA (ΔΔ Ct) in compound treated cells or tissues compared to vehicle levels. […]"}, "[2]": {"test_system": "Cyp1a1", "test": "Cyp1a1 mRNA in rat liver after 5 days of dosing (microarray, RT-PCR)", "type": "in vivo", "description": "All animal experiments were conducted in accordance with the Guiding Principles in the Use of Animals in Toxicology (http://www.toxicology.org/ai/air/air6.asp) and were approved by Abbott's Institutional Animal Care and Use Committee (IACUC). Male Sprague-Dawley rats [Crl:CD®(SD)IGS BR], weighing ~250 g at study initiation were obtained from Charles River Laboratories, Inc. (Wilmington, MA). Rats were housed singly in ventilated, stainless steel, wire-bottom hanging cages and fed non-certified Rodent Chow (Harlan Labs, Madison, WI), and water ad libitum and acclimated for at least 5 days after arrival. […] Serum clinical chemistry parameters were quantified using an Aeroset Clinical Chemistry Analyzer (Abbott Laboratories, Abbott Park, IL) and included alanine amino transferase (ALT), aspartate amino transferase (AST), gamma glutamyltransferase (GGT), and alkaline phosphatase (ALP) activities.\nFrozen liver or jejunum were immediately added to 4 ml of TRIzol reagent (Invitrogen Life Technologies) and homogenized using a Polytron 300D homogenizer (Brinkman Instruments, Westbury, NY). […] Nucleic acid concentration was determined by OD 260 nm (Smart-Spec, Bio-Rad Laboratories, Hercules, CA), and RNA integrity was evaluated using an Agilent 2100 bioanalyzer (Agilent Technologies, Foster City, CA). […]"}}, "data": [{"smiles": "N#Cc1cccc(-c2noc(-c3cccnc3)n2)c1", "note": "[A-998679, 3-(5-pyridin-3-yl-1,2,4-oxadiazol-3-yl) benzonitrile]", "values": [{"measurement": "Cyp1a1 mRNA induction", "setting": "[1]", "result": "also observed"}, {"measurement": "Cyp1a1 mRNA increase in rat liver (microarray)", "setting": "[2]; 5 days of dosing, in at least one animal starting at the 100 mg/kg dose", "result": "10–100 fold"}, {"measurement": "Cyp1a1 mRNA expression in rat liver (RT-PCR)", "setting": "[2]; 5 days, all doses (30, 100, 200 mg/kg/day)", "result": "strongly induced"}]}]}
